This is an account of results in a melting point compilation (Tetko et al.).

`Cc1c(F)ccc(C#N)c1F` registered a melting point of 44 °C.

`COC(=O)CC(CC(=O)OC)(c1cc(C)c(O)c(C)c1)c1cc(C)c(O)c(C)c1` had a melting point of 199 °C. The value for `C=CCN(CC=C)C(SC)=C(C#N)C(N)=O` was 110 °C; that for `C1CCC(C2CCCCC2)CC1` was 3 to 4 °C; that for `Cc1cc(C)c(C#N)c(O)n1` was 285 to 287 °C.

On to `CC(=O)N(c1onc(C)c1C)S(=O)(=O)c1ccc(N)cc1`, for which the melting point amounted to 194 °C. In the case of `c1ccc(CNc2ccccc2-n2c(-c3ccccc3)nc3ccccc32)cc1`, the melting point came to 160 °C. `COc1cccc2cc(C(=O)C3CC(C)(c4c(C)cc(C)cc4C)C3)oc12` (stereo not given) yielded a melting point of 96 to 97 °C. The value for `CCCCCCOc1ccccc1` was -19 °C; that for `C#CC1(O)CCC2C3CCC4=CC(=O)CCC4C3CCC21C` (stereo not given) was 204 °C; that for `COc1ccc(C=NN=Cc2ccc(OC)cc2)cc1` was 167 to 168 °C. Compound `CCOC(=O)NC(N)=O` registered a melting point of 196 °C. Compound `C=CCC1(CC(C)C)C(=O)NC(=O)NC1=O` yielded a melting point of 138 °C.

`CSC(SC)=C(C#N)C(=O)c1cccc(C(F)(F)F)c1` had a melting point of 60 °C.

Compound `CC1(c2ccccc2)OC(C(=O)O)=CC1=O` (stereo not given) came in with a melting point of 176 °C. The value for `CCCCC(=O)c1ccc(O)cc1` was 62 to 65 °C; that for `O=C1NN=C(C(F)(F)F)C1=NNc1cc(Cl)ccc1Cl` was 214 °C; that for `FC(F)(F)C(F)(F)C(F)(F)C(F)(F)C(F)(F)C(F)(F)C(F)(F)C(F)(F)CCI` was 82.5 °C. The value for `OC1(C#Cc2ccccc2)Cc2ccccc21` (stereo not given) was 99 °C. The compound `O=C1Cc2cc3c(cc21)OCO3` came in with a melting point of 126 °C.

The compound `O=C(O)CCN1CCNCC1` gave a melting point of 71 to 86 °C. For `Nc1ncnc2[nH]nnc12` the value was above 300 °C. The value for `COc1ccccc1Oc1ccc(S(=O)(=O)Cl)cc1` was 54 to 56 °C.

`COc1cc(O)c(C(=O)c2ccccc2)c(O)c1` showed a melting point of 130 °C. The value for `CCCCCCCCOC(=O)CCCCCCC` was -18.1 °C; that for `NC(c1ccc(F)cc1)C(N)c1ccc(F)cc1` (stereo not given) was 100 to 104 °C. The value for `Oc1ccc(F)cc1Cl` was 23 °C; that for `N#Cc1cc2ccccc2c2ccccc12` was 111 °C; that for `CC(NC(=O)COCCN1C(=O)c2ccccc2C1=O)[P+]([O-])(Oc1ccccc1)Oc1ccccc1` (stereo not given) was 107 °C. `O=C(O)c1cc2ccccc2cc1C(=O)O` yielded a melting point of 238 °C. For `CC(C)(C)C(O)C(=Cc1ccc(Cl)cc1)n1cncn1` (stereo not given) the value was 153 °C; for `Cc1cc(-c2ccc(N=C=O)c(C)c2)ccc1N=C=O`, 71 °C.

As for `Oc1ccc2cc(Br)ccc2c1`, the melting point was determined as 128 °C.

In turn, `O=C(O)c1cc2cccc([N+](=O)[O-])c2[nH]1` showed a melting point of 265 °C. `O=C1OC(=O)c2c(F)cccc21`: the melting point was 159 to 163 °C. The compound `c1ccc(C(c2ccccc2)=P(c2ccccc2)(c2ccccc2)c2ccccc2)cc1` registered a melting point of 169 to 171 °C. For `CS(=O)(=O)Nc1cccc(C=O)c1` the value was 146 to 147 °C; for `Oc1ccc(Cl)cc1F`, 20 °C; for `Nc1c(F)c(F)c(C(=O)O)c(F)c1F`, 183 °C. For `O=C(Cl)c1ccc(N=Nc2ccccc2)cc1` the value was 93 to 97 °C. Turning to `CCOC(=O)c1c(N)sc2c1CCC2`, the melting point was 90 to 94 °C. Consider `CCOc1ccc2c(c1)C(C)=CC(C)(C)N2`, for which the melting point was below -20 °C. For `Nc1c(I)cc(I)c(C(=O)N(CCC(=O)O)c2ccccc2)c1I` the value was 134 °C; for `C=CC[C@H](NC(=O)OCC1c2ccccc2-c2ccccc21)C(=O)O`, 137 °C; for `COc1ccc(-c2cc3c(C#N)c(N)[nH]n3c(=O)c2C#N)cc1`, 297 °C.

`CCn1c2ccc(Br)cc2c2cc(Br)ccc21` returned a melting point of 139 °C. The value for `CNCc1ccc(-c2cncnc2)cc1` was 45 to 46 °C; that for `c1cnc(SSc2ncccn2)nc1` was 139 to 141 °C. For `O=Cc1c[nH]c2ccc(OCc3ccccc3)cc12` the value was 241 °C; for `CC(C)=CC1C(C(=O)OCN2C(=O)C3=C(CCCC3)C2=O)C1(C)C` (stereo not given), 69 °C. The value for `SC1=NNC(c2ccccn2)S1` (stereo not given) was 114 to 116 °C; that for `O=[N+]([O-])c1cccc(OCCCCBr)c1` was 62 to 63 °C; that for `CC(=O)c1ccc(F)c(Cl)c1` was 42 to 44 °C. The compound `NS(=O)(=O)c1cc(Cl)c(Cl)c(S(N)(=O)=O)c1` returned a melting point of 229 °C. For `CC1CC(C)C(=O)C(C(O)CC2CC(=O)NC(=O)C2)C1` (stereo not given) the value was 119 °C.

Compound `FC(F)(F)C(F)(F)C(Cl)(Cl)Cl` registered a melting point of -80 °C. For `Cc1ccc(F)cc1N` the value was 39 °C; for `CC12CCC3C(CCC4CC(O)CCC43C)C1CCC2O` (stereo not given), 167 °C. The value for `CC(=O)C1C(=O)c2cccc([N+](=O)[O-])c2C1=O` (stereo not given) was 147 to 150 °C.

`CCOCOc1ccc(C(=O)Nc2cccc(Cl)c2Cl)cc1`: the melting point came to 92.5 °C. The value for `O=C(O)CNCCNCC(=O)O` was 224 to 225 °C; that for `Nc1nc(O)cc(O)n1` was 300 °C. `O=P(O)(O)CCP(=O)(O)O`: the melting point is 218 °C. For `C=CCSc1nc(=O)[nH]c2c1CCCC2` the value was 207 to 209 °C. For the compound `O=C1Cc2cccc(Br)c21`, the melting point fell in the range of 81.5 to 83 °C.

`Cc1noc(C)c1-c1nc(CCl)no1` gave a melting point of 88 to 90 °C. Compound `CC1CCC(C)CC1` (stereo not given) showed a melting point of -36.9 °C.

As to `CC(=O)c1cc(Br)ccc1O`, the melting point lay in the range of 58 to 61 °C. For `CNc1ccncc1` the value was 126 °C. With `N#CCc1ccccc1Br`, the melting point turned out to be 19 °C.

As for `O=c1[nH]cc(Cl)cc1[N+](=O)[O-]`, the melting point lay within 234 to 236 °C. The value for `COc1ccc(-c2n[nH]cc2C=O)cc1` was 160 to 161 °C; that for `CC(C)(Cl)CCC(C)(C)Cl` was 67.5 °C. The value for `C#CCn1ccc2cc(C(=O)OC)ccc21` was 94 to 96 °C; that for `CC(=O)OC1CC[C@@]2(C)C(CC[C@@H]3[C@@H]2CC[C@@]2(C)[C@H]3CC[C@]2(O)C#Cc2ccccc2)C1` (stereo not given in full) was 170 to 171 °C. For `O=C(C1CCCNC1)N1CCCC1` (stereo not given) the value was 57 to 64 °C; for `Cc1ccc(Cl)cc1NC(N)=S`, 160 to 161 °C; for `Cc1cnc(NS(=O)(=O)c2ccc(N)cc2)nc1`, 262 °C. `CCCCCCCCCc1ccccc1` registered a melting point of -24 °C.

As to `CCOC(=O)c1c(SC)nn(-c2ccc([N+](=O)[O-])cc2)c1N`, the melting point was determined as 181 °C.
